In patent US6472348B1, “Pyridone derivatives and herbicides” (Kumiai Chemical Industry Co., Ltd., priority 1996, dated 2002):

How the values were obtained:
Format in all cases: in vivo
slender amaranth (Am) [1] = assay: Test Example 5: crop plant selectivity by upland field soil treatment (wheat), herbicidal effects; set-up: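 grade of growth control; 5 = at least 90%; 4 = 70 to 90%; 3 = 50 to 70%; 2 = 30 to 50%; 1 = 10 to 30%; 0 = under 10%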; conditions: 21st day after application
Summary of the method: (§1)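 Pre-emergence soil treatment, sand-filled pots, seeds covered with soil; greenhouse culture; visual scoring of weed control and wheat injury at day 21 post-application.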

green foxtail (Se) = assay: as above; set-up: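 grade of growth control; 5 = at least 90%; 4 = 70 to 90%; 3 = 50 to 70%; 2 = 30 to 50%; 1 = 10 to 30%; 0 = under 10%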; conditions: 21st day after application
Summary of the method: as §1

China jute (Ab) = assay: as above; set-up: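 grade of growth control; 5 = at least 90%; 4 = 70 to 90%; 3 = 50 to 70%; 2 = 30 to 50%; 1 = 10 to 30%; 0 = under 10%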; conditions: 21st day after application
Summary of the method: as §1

pale smartweed (Po) [2] = assay: as above; set-up: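 grade of growth control; 5 = at least 90%; 4 = 70 to 90%; 3 = 50 to 70%; 2 = 30 to 50%; 1 = 10 to 30%; 0 = under 10%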; conditions: 21st day after application
Summary of the method: as §1

slender amaranth (Am) [3] = assay: Test Example 2: herbicidal effects by upland field soil treatment; conditions: 100 g of the active ingredient per 10 ares;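 note: grade of growth control; 5 = at least 90%; 4 = 70 to 90%; 3 = 50 to 70%; 2 = 30 to 50%; 1 = 10 to 30%; 0 = under 10%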
From the text: (§2) (Test on Herbicidal Effects by Upland Field Soil Treatment)

[4] = system: common lambsquarters (Ch); assay: as above; conditions: 100 g of the active ingredient per 10 ares;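 note: grade of growth control; 5 = at least 90%; 4 = 70 to 90%; 3 = 50 to 70%; 2 = 30 to 50%; 1 = 10 to 30%; 0 = under 10%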
From the text: as §2

rice flatsedge (Ci) = assay: as above; conditions: 100 g of the active ingredient per 10 ares;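 note: grade of growth control; 5 = at least 90%; 4 = 70 to 90%; 3 = 50 to 70%; 2 = 30 to 50%; 1 = 10 to 30%; 0 = under 10%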
From the text: as §2

pale smartweed (Po) [5] = assay: as above; conditions: 100 g of the active ingredient per 10 ares
From the text: as §2

Digitaria ciliaris (Di) = assay: as above; conditions: 100 g of the active ingredient per 10 ares;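 note: grade of growth control; 5 = at least 90%; 4 = 70 to 90%; 3 = 50 to 70%; 2 = 30 to 50%; 1 = 10 to 30%; 0 = under 10%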
From the text: as §2

barnyardgrass (Ec) = assay: as above; conditions: 100 g of the active ingredient per 10 ares
From the text: as §2

[6] = evaluated on the 21st day after application
[7] = 21st day after the application, index 0-5 of Table 47

C#CC(C)Oc1cc(-c2cn(C)c(C(F)(F)F)cc2=O)c(F)cc1Cl (racemic) [Compound 6-10]
Herbicidal effects Am (slender amaranth (Am) [1]; dose 1.6 g ai/10a): 5
Herbicidal effects Se (green foxtail (Se); dose 1.6 g ai/10a): 4
Herbicidal effects Ab (China jute (Ab); dose 1.6 g ai/10a): 4
Herbicidal effects Po (pale smartweed (Po) [2]; dose 1.6 g ai/10a): 5
Herbicidal effects Am (slender amaranth (Am) [3]; [6]): 5
Herbicidal effects Ch [4, 6]: 5
Herbicidal effects Ci (rice flatsedge (Ci); [6]): 5
Herbicidal effects Po (pale smartweed (Po) [5]; [6]): 5
Herbicidal effects Di (Digitaria ciliaris (Di); [6]): 5
Herbicidal effects Ec (barnyardgrass (Ec); [6]): 5

COc1cc(-c2ccc(C(F)(F)F)n(C)c2=O)c(F)cc1Cl [1-15]
Herbicidal effects Am (slender amaranth (Am) [1]; dose 1.6 g ai/10a): 5
Herbicidal effects Se (green foxtail (Se); dose 1.6 g ai/10a): 5
Herbicidal effects Ab (China jute (Ab); dose 1.6 g ai/10a): 5
Herbicidal effects Po (pale smartweed (Po) [2]; dose 1.6 g ai/10a): 5
Herbicidal effects Am (slender amaranth (Am) [3]; [7]): 5
Herbicidal effects Ch [4, 7]: 5
Herbicidal effects Ci (rice flatsedge (Ci); [7]): 5
Herbicidal effects Po (pale smartweed (Po) [5]; [7]): 5
Herbicidal effects Di (Digitaria ciliaris (Di); [7]): 5
Herbicidal effects Ec (barnyardgrass (Ec); [7]): 5

C=CCOc1cc(-c2ccc(C(F)(F)F)n(C)c2=O)c(F)cc1Cl [1-16]
Herbicidal effects Am (slender amaranth (Am) [1]; dose 1.6 g ai/10a): 5
Herbicidal effects Am (slender amaranth (Am) [1]; dose 6.3 g ai/10a): 5
Herbicidal effects Se (green foxtail (Se); dose 1.6 g ai/10a): 5
Herbicidal effects Se (green foxtail (Se); dose 6.3 g ai/10a): 5
Herbicidal effects Ab (China jute (Ab); dose 1.6 g ai/10a): 5
Herbicidal effects Ab (China jute (Ab); dose 6.3 g ai/10a): 5
Herbicidal effects Po (pale smartweed (Po) [2]; dose 1.6 g ai/10a): 5
Herbicidal effects Po (pale smartweed (Po) [2]; dose 6.3 g ai/10a): 5
Herbicidal effects Am (slender amaranth (Am) [3]; [7]): 5
Herbicidal effects Ch [4, 7]: 5
Herbicidal effects Ci (rice flatsedge (Ci); [7]): 5
Herbicidal effects Po (pale smartweed (Po) [5]; [7]): 5
Herbicidal effects Di (Digitaria ciliaris (Di); [7]): 5
Herbicidal effects Ec (barnyardgrass (Ec); [7]): 5

C#CC(C)Oc1cc(-c2ccc(C(F)(F)F)n(C)c2=O)c(F)cc1Cl (stereo not drawn) [1-17]
Herbicidal effects Am (slender amaranth (Am) [1]; dose 1.6 g ai/10a): 5
Herbicidal effects Se (green foxtail (Se); dose 1.6 g ai/10a): 5
Herbicidal effects Ab (China jute (Ab); dose 1.6 g ai/10a): 5
Herbicidal effects Po (pale smartweed (Po) [2]; dose 1.6 g ai/10a): 5
Herbicidal effects Am (slender amaranth (Am) [3]; [7]): 5
Herbicidal effects Ch [4, 7]: 5
Herbicidal effects Ci (rice flatsedge (Ci); [7]): 5
Herbicidal effects Po (pale smartweed (Po) [5]; [7]): 5
Herbicidal effects Di (Digitaria ciliaris (Di); [7]): 5
Herbicidal effects Ec (barnyardgrass (Ec); [7]): 5

C#CCOc1cc(-c2ccc(C(F)(F)F)n(C)c2=O)c(F)cc1Cl [1-18]
Herbicidal effects Am (slender amaranth (Am) [1]; dose 1.6 g ai/10a): 5
Herbicidal effects Se (green foxtail (Se); dose 1.6 g ai/10a): 5
Herbicidal effects Ab (China jute (Ab); dose 1.6 g ai/10a): 5
Herbicidal effects Po (pale smartweed (Po) [2]; dose 1.6 g ai/10a): 5
Herbicidal effects Am (slender amaranth (Am) [3]; [7]): 5
Herbicidal effects Ch [4, 7]: 5
Herbicidal effects Ci (rice flatsedge (Ci); [7]): 5
Herbicidal effects Po (pale smartweed (Po) [5]; [7]): 5
Herbicidal effects Di (Digitaria ciliaris (Di); [7]): 5
Herbicidal effects Ec (barnyardgrass (Ec); [7]): 5

Cn1c(C(F)(F)F)ccc(-c2cc(OCC#N)c(Cl)cc2F)c1=O [1-25]
Herbicidal effects Am (slender amaranth (Am) [3]; [7]): 5
Herbicidal effects Ch [4, 7]: 5
Herbicidal effects Ci (rice flatsedge (Ci); [7]): 5
Herbicidal effects Po (pale smartweed (Po) [5]; [7]): 5
Herbicidal effects Di (Digitaria ciliaris (Di); [7]): 5
Herbicidal effects Ec (barnyardgrass (Ec); [7]): 5

C#CCOc1cc(-c2ccc(C(F)(F)F)n(C)c2=O)c(Cl)cc1Cl [1-30]
Herbicidal effects Am (slender amaranth (Am) [1]; dose 1.6 g ai/10a): 5
Herbicidal effects Se (green foxtail (Se); dose 1.6 g ai/10a): 5
Herbicidal effects Ab (China jute (Ab); dose 1.6 g ai/10a): 5
Herbicidal effects Po (pale smartweed (Po) [2]; dose 1.6 g ai/10a): 5
Herbicidal effects Am (slender amaranth (Am) [3]; [7]): 5
Herbicidal effects Ch [4, 7]: 5
Herbicidal effects Ci (rice flatsedge (Ci); [7]): 5
Herbicidal effects Po (pale smartweed (Po) [5]; [7]): 5
Herbicidal effects Di (Digitaria ciliaris (Di); [7]): 5
Herbicidal effects Ec (barnyardgrass (Ec); [7]): 5

CC(C)Sc1cc(-c2ccc(C(F)(F)F)n(C)c2=O)c(F)cc1Cl [1-43]
Herbicidal effects Am (slender amaranth (Am) [1]; dose 6.3 g ai/10a): 5
Herbicidal effects Se (green foxtail (Se); dose 6.3 g ai/10a): 5
Herbicidal effects Ab (China jute (Ab); dose 6.3 g ai/10a): 4
Herbicidal effects Po (pale smartweed (Po) [2]; dose 6.3 g ai/10a): 5
Herbicidal effects Am (slender amaranth (Am) [3]; [7]): 5
Herbicidal effects Ch [4, 7]: 5
Herbicidal effects Ci (rice flatsedge (Ci); [7]): 5
Herbicidal effects Po (pale smartweed (Po) [5]; [7]): 5
Herbicidal effects Di (Digitaria ciliaris (Di); [7]): 5
Herbicidal effects Ec (barnyardgrass (Ec); [7]): 5

C#CCSc1cc(-c2ccc(C(F)(F)F)n(C)c2=O)c(F)cc1Cl [1-44]
Herbicidal effects Am (slender amaranth (Am) [1]; dose 6.3 g ai/10a): 5
Herbicidal effects Se (green foxtail (Se); dose 6.3 g ai/10a): 5
Herbicidal effects Ab (China jute (Ab); dose 6.3 g ai/10a): 5
Herbicidal effects Po (pale smartweed (Po) [2]; dose 6.3 g ai/10a): 5
Herbicidal effects Am (slender amaranth (Am) [3]; [7]): 5
Herbicidal effects Ch [4, 7]: 5
Herbicidal effects Ci (rice flatsedge (Ci); [7]): 5
Herbicidal effects Po (pale smartweed (Po) [5]; [7]): 5
Herbicidal effects Di (Digitaria ciliaris (Di); [7]): 5
Herbicidal effects Ec (barnyardgrass (Ec); [7]): 5

CCOC(=O)c1cc(-c2ccc(C(F)(F)F)n(C)c2=O)c(F)cc1Cl [1-65]
Herbicidal effects Am (slender amaranth (Am) [1]; dose 1.6 g ai/10a): 5
Herbicidal effects Am (slender amaranth (Am) [1]; dose 6.3 g ai/10a): 5
Herbicidal effects Se (green foxtail (Se); dose 1.6 g ai/10a): 5
Herbicidal effects Se (green foxtail (Se); dose 6.3 g ai/10a): 5
Herbicidal effects Ab (China jute (Ab); dose 1.6 g ai/10a): 5
Herbicidal effects Ab (China jute (Ab); dose 6.3 g ai/10a): 5
Herbicidal effects Po (pale smartweed (Po) [2]; dose 1.6 g ai/10a): 5
Herbicidal effects Po (pale smartweed (Po) [2]; dose 6.3 g ai/10a): 5
Herbicidal effects Am (slender amaranth (Am) [3]; [7]): 5
Herbicidal effects Ch [4, 7]: 5
Herbicidal effects Ci (rice flatsedge (Ci); [7]): 5
Herbicidal effects Po (pale smartweed (Po) [5]; [7]): 5
Herbicidal effects Di (Digitaria ciliaris (Di); [7]): 5
Herbicidal effects Ec (barnyardgrass (Ec); [7]): 5

Cc1cc(-c2ccc(C(F)(F)F)n(C)c2=O)c(F)cc1Cl [1-90]
Herbicidal effects Am (slender amaranth (Am) [1]; dose 6.3 g ai/10a): 5
Herbicidal effects Se (green foxtail (Se); dose 6.3 g ai/10a): 5
Herbicidal effects Ab (China jute (Ab); dose 6.3 g ai/10a): 5
Herbicidal effects Po (pale smartweed (Po) [2]; dose 6.3 g ai/10a): 5
Herbicidal effects Am (slender amaranth (Am) [3]; [7]): 5
Herbicidal effects Ch [4, 7]: 5
Herbicidal effects Ci (rice flatsedge (Ci); [7]): 5
Herbicidal effects Po (pale smartweed (Po) [5]; [7]): 5
Herbicidal effects Di (Digitaria ciliaris (Di); [7]): 5
Herbicidal effects Ec (barnyardgrass (Ec); [7]): 5

COCSc1cc(-c2ccc(C(F)(F)F)n(C)c2=O)c(F)cc1Cl [1-91]
Herbicidal effects Am (slender amaranth (Am) [1]; dose 1.6 g ai/10a): 5
Herbicidal effects Se (green foxtail (Se); dose 1.6 g ai/10a): 5
Herbicidal effects Ab (China jute (Ab); dose 1.6 g ai/10a): 5
Herbicidal effects Po (pale smartweed (Po) [2]; dose 1.6 g ai/10a): 5
Herbicidal effects Am (slender amaranth (Am) [3]; [7]): 5
Herbicidal effects Ch [4, 7]: 5
Herbicidal effects Ci (rice flatsedge (Ci); [7]): 5
Herbicidal effects Po (pale smartweed (Po) [5]; [7]): 5
Herbicidal effects Di (Digitaria ciliaris (Di); [7]): 5
Herbicidal effects Ec (barnyardgrass (Ec); [7]): 5

Cn1c(C(F)(F)F)ccc(-c2cc(Cl)c(Cl)cc2F)c1=O [1-136]
Herbicidal effects Am (slender amaranth (Am) [1]; dose 1.6 g ai/10a): 5
Herbicidal effects Am (slender amaranth (Am) [1]; dose 6.3 g ai/10a): 5
Herbicidal effects Se (green foxtail (Se); dose 1.6 g ai/10a): 5
Herbicidal effects Se (green foxtail (Se); dose 6.3 g ai/10a): 5
Herbicidal effects Ab (China jute (Ab); dose 1.6 g ai/10a): 4
Herbicidal effects Ab (China jute (Ab); dose 6.3 g ai/10a): 5
Herbicidal effects Po (pale smartweed (Po) [2]; dose 1.6 g ai/10a): 5
Herbicidal effects Po (pale smartweed (Po) [2]; dose 6.3 g ai/10a): 5
Herbicidal effects Am (slender amaranth (Am) [3]; [7]): 5
Herbicidal effects Ch [4, 7]: 5
Herbicidal effects Ci (rice flatsedge (Ci); [7]): 5
Herbicidal effects Po (pale smartweed (Po) [5]; [7]): 5
Herbicidal effects Di (Digitaria ciliaris (Di); [7]): 5
Herbicidal effects Ec (barnyardgrass (Ec); [7]): 5
